Results: patent US7635719B2, “Use of adamatyl methoxydiphenyl propenoic acid for the treatment of acne” (Sigma-Tau Industrie Farmaceutiche Riunite S.p.A., priority 2005, dated 2009)

Experiments:
[1] = system: epidermal utriculi (comedones) of rhino mice; assay: Comedolytic action of ST1898 (Formulation 2) on epidermal pseudocomedones in rhino mice; format: in vivo, rhino (RHJ/LeJ) mice
Experimental: Formulations: ST1898 0.1 and 0.05% in the vehicle.
Vehicle: carbomer 980, propylene glycol, poloxamer, disodium edentate, methyl hydroxybenzoate, phenoxyethanol, sodium hydroxide and purified water).
Adapalene (Differin Gel®) was used as reference compound (0.1%).
(§1) 30 rhino (RHJ/LeJ) mice (Jackson Laboratory), 15 male and 15 female (6-8 weeks of age) were subdivided in 6 mice/group. Two groups were treated with ST1898 (Formulation 2) (0.1% and 0.05% in the vehicle), a group with adapalene (Differin® gel), used as reference compound (0.1%), a group with the vehicle (the same of the formulation of Differin® gel: carbomer 980, propylene glycol, poloxamer, disodium edentate, methyl hydroxybenzoate, phenoxyethanol, sodium hydroxide and purified water).
A group was not treated (control). The drugs (50 μl) were applied with a sterile gloved finger topically on the dorsal skin (massage for 30-45 sec), once daily for 5 consecutive days/week (excluding Saturdays and Sundays) for 3 consecutive […]. Three days after the last application, mice were sacrificed by cervical dislocation. Two skin punch biopsies (6 mm) were taken immediately after death from all sacrificed animals. The biopsies were formalin-fixed (10% buffered formalin solution) and paraffin-embedded.
Quantitative histological image analysis was evaluated as the total number of epidermal utriculi (comedones) per centimeter of stratum corneum length, the comedo profile, and the epidermal thickness. From one biopsy, three 3-μm thick skin sections were obtained at 150 μm intervals and were stained with hematoxylin-eosin. The second biopsy was kept stored for records.
Assisted computer morphometric analysis of the stained skin sections was performed using a Zeiss KS300.3 system (parameters n. 1, 3 and 4). For total length of the stratum corneum measurement a micrometric equipment was used. The following microscopic parameters were measured:
1) on each open epidermal utriculum/comedo the largest diameter or diameter taken at half depth (D) and diameter of the surface orifice (d),
2) length of the three sections, taken as total length of the stratum corneum,
3) total number of epidermal utriculi/comedones in the three sections,
4) in interfollicular areas, surface (S) of the epidermis and length (L) of the corresponding basal layer.
1) number of utriculi/(comedones)/length of stratum corneum (cm);
2) Comedo profile, calculated as r=d/D,
3) epidermal thickness, calculated as S/L in […]m.
A topical application on the dorsal skin (massage for 30-45 sec) was performed of 50 μl applied with a gloved finger. The treatment was done once daily for 5 consecutive days/week (excluding Saturdays and Sundays) for 3 consecutive weeks. […]

[2] = Body weight of rhino mice treated with ST1898 (Formulation 2) or adapalene; format: in vivo, rhino (RHJ/LeJ) mice
Experimental: as §1
A topical application on the dorsal skin (massage for 30-45 sec) was performed of 50 μl applied with a gloved finger. The treatment was done once daily for 5 consecutive days/week (excluding Saturdays and Sundays) for 3 consecutive weeks.
During the treatment, the body weight of mice was recorded to control the healthy status of mice. No significative variation in body weight was found (table 2).
Mice were sacrificed 3 days after the last treatment. The vehicle used for ST1898 (Formulation 2) was the same of Differin gel (carbomer 980, propylene glycol, poloxamer, disodium edentate, methyl hydroxybenzoate, phenoxyethanol, sodium hydroxide and purified water).

COc1ccc(-c2ccc3cc(C(=O)O)ccc3c2)cc1C12CC3CC(CC(C3)C1)C2 [Adapalene, reference compound]
Comedones (n/cm) ([1]; 0.1% gel (Formulation 2 / Differin gel), topical 50 μl qdx5/wx3w, mean ± SD, untreated 57.35, vehicle 57.27): 28.31 ± 2.92 n/cm | Comedo profile (r = d/D) ([1]; 0.1% gel, topical 50 μl qdx5/wx3w, mean ± SD, untreated 0.62, vehicle 0.61): 1.24 ± 0.11 | Epidermal thickness (μm) ([1]; 0.1% gel, topical 50 μl qdx5/wx3w, mean ± SD, untreated 20.90, vehicle 20.56): 57.33 ± 9.99 μm | Histological analysis: interfollicular epidermis (in words) ([1]; skin of treated rhino mice): hyperplasia of interfollicular epidermis | Initial body weight gr ± SE ([2]; 0.1% group, before treatment): 21.3 ± 1.1 gr | Body weight loss max (%) ([2]; 0.1% topical qdx5/wx3w): 4% | Final body weight gr ± SE ([2]; 0.1% topical qdx5/wx3w): 21.2 ± 1.3 gr
